Source: publication PMC12758328 (Virulence, 2025)

How the values were obtained:
SpyGapN = target: T1, SpyGapN (Streptococcus pyogenes, UniProt Q99Z67); assay: NADPH formation at […] nm; format: biochemical; conditions: for inhibition at 40000 µM: read-out: % inhibition at 40 mM
T1 sequence (Q99Z67 1-475): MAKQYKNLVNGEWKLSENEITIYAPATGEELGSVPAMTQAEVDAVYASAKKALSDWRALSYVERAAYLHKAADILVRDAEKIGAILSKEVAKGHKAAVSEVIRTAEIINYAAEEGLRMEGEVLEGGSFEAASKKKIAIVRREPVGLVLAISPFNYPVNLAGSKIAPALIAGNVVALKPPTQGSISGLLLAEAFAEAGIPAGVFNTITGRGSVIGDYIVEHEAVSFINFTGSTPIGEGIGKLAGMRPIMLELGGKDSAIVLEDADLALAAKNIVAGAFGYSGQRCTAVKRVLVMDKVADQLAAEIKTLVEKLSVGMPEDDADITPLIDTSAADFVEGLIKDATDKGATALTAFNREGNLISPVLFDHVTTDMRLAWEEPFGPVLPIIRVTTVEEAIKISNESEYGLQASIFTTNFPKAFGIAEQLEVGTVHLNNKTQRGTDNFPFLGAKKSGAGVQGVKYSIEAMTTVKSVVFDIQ

SpyGapDH = target: T2, SpyGapDH (Streptococcus pyogenes, UniProt P0C0G7); assay: NADH formation at […] nm; format: biochemical; conditions: 10 mM NAD+, 10 mM phosphate, 200 mM Tricine pH 8.5
T2 sequence (P0C0G7 2-336): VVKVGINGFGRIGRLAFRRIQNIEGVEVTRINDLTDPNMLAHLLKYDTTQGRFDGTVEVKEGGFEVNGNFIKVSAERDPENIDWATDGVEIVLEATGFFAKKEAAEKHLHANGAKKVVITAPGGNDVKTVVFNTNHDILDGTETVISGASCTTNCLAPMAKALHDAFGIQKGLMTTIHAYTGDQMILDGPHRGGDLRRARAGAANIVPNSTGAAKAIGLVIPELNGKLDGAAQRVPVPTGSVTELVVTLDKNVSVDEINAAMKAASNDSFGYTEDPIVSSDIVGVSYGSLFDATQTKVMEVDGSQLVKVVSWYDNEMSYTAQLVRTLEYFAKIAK

(ethoxyoxydophosphanyl)formate [compound 32]
% inhibition at 8 mM (SpyGapN; 2 mM DL-G3P, 10 mM NADP+, 200 mM Tricine pH 8.5): ~ 25%

O=S(=O)(O)C(O)C(O)S(=O)(=O)O (centres unmarked) [compound 26, 1,2-dihydroxyethane-1,2-disulfonate]
inhibition at 8000 µM (SpyGapN; read-out: % inhibition at 8 mM): ~50%

Oc1ccnnc1 [R76, 4-Hydroxypyridazine]
inhibition at 40000 µM (SpyGapN): ~16%

Nc1cncnc1 [R65, Pyrimidine-5-amine]
inhibition at 40000 µM (SpyGapN): ~42%

O=CC(O)COP(=O)(O)O (racemic) [DL-glyceraldehyde 3-phosphate]
NADH formation at 340 nm (SpyGapDH): To measure the GapDH activity, the assay mixture contained
